# From US11524966B1 (Valo Early Discovery, Inc., priority 2017, dated 2022)
# Target: T1, USP28 (His-tagged USP28-FL-mammalian) (Homo sapiens, UniProt Q96RU2)
# T1 construct: Expression of USP28 (1-1077)-TEV-6*His (pTT5 vector); made in house; host or cells: Expi293f cells (pTT5 vector)
# T1 sequence (Q96RU2 1-1077): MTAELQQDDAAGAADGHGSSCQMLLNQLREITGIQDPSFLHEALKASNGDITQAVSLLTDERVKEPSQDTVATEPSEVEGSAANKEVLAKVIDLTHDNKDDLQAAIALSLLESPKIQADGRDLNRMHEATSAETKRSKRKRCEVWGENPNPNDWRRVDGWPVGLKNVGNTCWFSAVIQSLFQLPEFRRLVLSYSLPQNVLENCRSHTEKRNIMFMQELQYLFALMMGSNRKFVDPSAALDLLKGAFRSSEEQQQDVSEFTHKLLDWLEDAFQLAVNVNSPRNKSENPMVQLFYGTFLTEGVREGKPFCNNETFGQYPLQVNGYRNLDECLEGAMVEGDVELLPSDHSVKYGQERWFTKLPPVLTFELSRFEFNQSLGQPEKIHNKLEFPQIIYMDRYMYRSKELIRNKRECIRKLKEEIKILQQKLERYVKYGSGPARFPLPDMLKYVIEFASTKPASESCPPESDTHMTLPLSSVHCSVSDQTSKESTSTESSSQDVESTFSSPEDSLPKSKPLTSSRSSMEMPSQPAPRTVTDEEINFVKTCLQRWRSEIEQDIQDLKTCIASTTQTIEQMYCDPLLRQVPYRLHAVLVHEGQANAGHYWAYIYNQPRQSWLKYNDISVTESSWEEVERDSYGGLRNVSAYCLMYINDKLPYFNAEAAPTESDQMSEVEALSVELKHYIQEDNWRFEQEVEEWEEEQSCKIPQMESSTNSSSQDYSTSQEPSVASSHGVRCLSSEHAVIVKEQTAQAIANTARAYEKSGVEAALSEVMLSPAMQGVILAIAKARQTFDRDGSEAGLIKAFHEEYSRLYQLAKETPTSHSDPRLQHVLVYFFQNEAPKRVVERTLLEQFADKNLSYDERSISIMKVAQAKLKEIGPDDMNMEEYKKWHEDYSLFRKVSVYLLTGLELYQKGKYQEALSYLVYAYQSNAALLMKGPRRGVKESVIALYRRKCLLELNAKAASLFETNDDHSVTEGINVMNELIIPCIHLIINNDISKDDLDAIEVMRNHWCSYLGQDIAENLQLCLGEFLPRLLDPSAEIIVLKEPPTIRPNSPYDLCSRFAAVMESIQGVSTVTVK
# Test: Ubiquitin-Rhodamine 110 Assay for USP28 Activity, Example A-1(a)
# Type: biochemical
# Details: Ubiquitin-Rhodamine 110 assay, Example A-1(a); read-out: USP28 A-1(a) IC50 range
# How it was run: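 Full-length His-tagged human USP28 (1-1077, Expi293f-expressed), […], with 25 nM Ub-Rh110 (<<Km) in pH 8.0 Tris buffer with BME, BGG, Triton X-100. 10-point dilutions (25 μM-1.3 nM), 45 min at room temperature, citric acid stop, fluorescence 485/535 nm; IC50 by 4-parameter fit.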
row,Structure (SMILES),IC50 [nM]
1,"Cc1ccc2c(N)c(C(=O)N[C@H]3COc4cc(N5C[C@@H](N)[C@H](OC(F)(F)F)C5)ccc4C3)sc2n1 (single isomer, unassigned) [Example 3-9]",50 to 200
2,"Cc1ccc2c(N)c(C(=O)N[C@H]3COc4cc(N5C[C@H](OC(F)(F)F)[C@@H](N)C5)ccc4C3)sc2n1 (single isomer, unassigned) [Example 3-10]",50 to 200
3,"Cc1ccc2c(N)c(C(=O)N[C@H]3COc4c(cc(F)c(N5CCNCC5)c4F)C3)sc2n1 (single isomer, unassigned) [Example 3-17]",1 to 50
4,"Cc1ccc2c(N)c(C(=O)N[C@@H]3COc4c(cc(F)c(N5CCNCC5)c4F)C3)sc2n1 (single isomer, unassigned) [Example 3-18]",200 to 2000
5,"Cc1ccc2c(N)c(C(=O)N[C@H]3COc4cc(N5C[C@H](N)CC56COC6)ccc4C3)sc2n1 (single isomer, unassigned) [Example 351]",1 to 50
6,"Cc1ccc2c(N)c(C(=O)N[C@H]3COc4cc(N5C[C@@H](N)CC56COC6)ccc4C3)sc2n1 (single isomer, unassigned) [Example 352]",1 to 50
7,"O=C(N[C@H]1CCc2c(c(F)cc(N3CC4CCC(C3)N4)c2C(F)F)C1)c1cnc2c(c1)[C@@H]1C[C@@H]1CN2 (single isomer, unassigned) [Example 359]",> 2000
8,"O=C(N[C@H]1CCc2c(c(F)cc(N3CC4CCC(C3)N4)c2C(F)F)C1)c1cnc2c(c1)[C@H]1C[C@H]1CN2 (single isomer, unassigned) [Example 360]",1 to 50
9,"O=C(N[C@@H]1CCc2c(c(F)cc(N3CC4CCC(C3)N4)c2C(F)F)C1)c1cnc2c(c1)[C@@H]1C[C@@H]1CN2 (single isomer, unassigned) [Example 361]",> 2000
10,"O=C(N[C@@H]1CCc2c(c(F)cc(N3CC4CCC(C3)N4)c2C(F)F)C1)c1cnc2c(c1)[C@H]1C[C@H]1CN2 (single isomer, unassigned) [Example 362]",200 to 2000
11,"Cc1ccc2c(N)c(C(=O)N[C@H]3COc4cc(N5C[C@H](N)[C@@H](F)C5)ccc4C3)sc2n1 [Example 3-7, 3-amino-N-((R)-7-((3S,4S)-3-amino-4-fluoropyrrolidin-1-yl)chroman-3-yl)-6-methylthieno[2,3-b]pyridine-2-carboxamide]",1 to 50
12,"Cc1ccc2c(N)c(C(=O)N[C@H]3COc4cc(N5C[C@@H](N)[C@H](F)C5)ccc4C3)sc2n1 [Example 3-8, 3-amino-N-((R)-7-((3R,4R)-3-amino-4-fluoropyrrolidin-1-yl)chroman-3-yl)-6-methylthieno[2,3-b]pyridine-2-carboxamide]",1 to 50
13,"Cc1ccc2c(N)c(C(=O)N[C@H]3COc4cc(N5CCN[C@@H](C(F)(F)F)C5)ccc4C3)sc2n1 [Example 3-11, 3-amino-6-methyl-N-((R)-7-((R)-3-(trifluoromethyl)piperazin-1-yl)chroman-3-yl)thieno[2,3-b]pyridine-2-carboxamide]",50 to 200
14,"Cc1ccc2c(N)c(C(=O)N[C@H]3COc4cc(N5CCN[C@H](C(F)(F)F)C5)ccc4C3)sc2n1 [Example 3-12, 3-amino-6-methyl-N-((R)-7-((S)-3-(trifluoromethyl)piperazin-1-yl)chroman-3-yl)thieno[2,3-b]pyridine-2-carboxamide]",50 to 200
15,"Cc1ccc2c(N)c(C(=O)N[C@H]3COc4cc(N5CC[C@]6(CCCNC6)C5)ccc4C3)sc2n1 [Example 3-13, N-((R)-7-((S)-2,7-diazaspiro[4.5]decan-2-yl)chroman-3-yl)-3-amino-6-methylthieno[2,3-b]pyridine-2-carboxamide]",1 to 50
16,"Cc1ccc2c(N)c(C(=O)N[C@H]3COc4cc(N5CC[C@@]6(CCCNC6)C5)ccc4C3)sc2n1 [Example 3-14, N-((R)-7-((R)-2,7-diazaspiro[4.5]decan-2-yl)chroman-3-yl)-3-amino-6-methylthieno[2,3-b]pyridine-2-carboxamide]",1 to 50
17,"O=C(N[C@H]1COc2cc(N3CC4CCC(C3)N4)ccc2C1)c1cnc2c(c1)[C@@H]1C[C@@H]1CN2 [Example 3-15, (1aS,7bR)-N-((3R)-7-(3,8-diazabicyclo[3.2.l]octan-3-yl)chroman-3-yl)-1a,2,3,7b-tetrahydro-1H-cyclopropa[c][1,8]naphthyridine-6-carboxamide]",1 to 50
18,"O=C(N[C@H]1COc2cc(N3CC4CCC(C3)N4)ccc2C1)c1cnc2c(c1)[C@H]1C[C@H]1CN2 [Example 3-16, (1aR,7bS)-N-((3R)-7-(3,8-diazabicyclo[3.2.1]octan-3-yl)chroman-3-yl)-1a,2,3,7b-tetrahydro-1H-cyclopropa[c][1,8]naphthyridine-6-carboxamide]",200 to 2000
19,"Cc1ccc2c(N)c(C(=O)N[C@H]3COc4cc(N5CCC(F)(F)CC5)ccc4C3)sc2n1 [Example 5-1, (R)-3-amino-N-(7-(4,4-difluoropiperidin-1-yl)chroman-3-yl)-6-methylthieno[2,3-b]pyridine-2-carboxamide]",1 to 50
20,"Cc1ccc2c(N)c(C(=O)N[C@H]3COc4cc(N5CCS(=O)(=O)CC5)ccc4C3)sc2n1 [Example 5-2, (R)-3-amino-N-(7-(1,1-dioxidothiomorpholino)chroman-3-yl)-6-methylthieno[2,3-b]pyridine-2-carboxamide]",1 to 50
21,"Cc1ccc2c(N)c(C(=O)N[C@H]3COc4cc(N5CC(O)(C(F)(F)F)C5)ccc4C3)sc2n1 [Example 5-3, (R)-3-amino-N-(7-(3-hydroxy-3-(trifluoromethyl)azetidin-1-yl)chroman-3-yl)-6-methylthieno[2,3-b]pyridine-2-carboxamide]",1 to 50
22,"Cc1ccc2c(N)c(C(=O)N[C@H]3COc4cc(N5CC6COCC(C5)C6(F)F)ccc4C3)sc2n1 [Example 5-4, 3-amino-N-((3R)-7-(9,9-difluoro-3-oxa-7-azabicyclo[3.3.1]nonan-7-yl)chroman-3-yl)-6-methylthieno[2,3-b]pyridine-2-carboxamide]",1 to 50
23,"Cc1ccc2c(N)c(C(=O)N[C@H]3COc4cc(N5CCC(C(=O)O)CC5)ccc4C3)sc2n1 [Example 6-1, (R)-1-(3-(3-Amino-6-methylthieno[2,3-b]pyridine-2-carboxamido)chroman-7-yl)piperidine-4-carboxylic Acid]",200 to 2000
24,"Cc1ccc2c(N)c(C(=O)N[C@H]3COc4cc(N5CC[C@@H](C(=O)O)C5)ccc4C3)sc2n1 [Example 6-2, (R)-1-((R)-3-(3-amino-6-methylthieno[2,3-b]pyridine-2-carboxamido)chroman-7-yl)pyrrolidine-3-carboxylic acid]",50 to 200
25,"Cc1ccc2c(N)c(C(=O)N[C@H]3COc4cc(N5CC[C@H](C(=O)O)C5)ccc4C3)sc2n1 [Example 6-3, (S)-1-((R)-3-(3-amino-6-methylthieno[2,3-b]pyridine-2-carboxamido)chroman-7-yl)pyrrolidine-3-carboxylic acid]",50 to 200
26,"Cc1cnc2c(N)c(C(=O)N[C@H]3CCc4cc(N5CC(C(=O)O)C5)ccc4C3)sc2n1 [Example 6-4, (S)-1-(6-(7-amino-3-methylthieno[2,3-b]pyrazine-6-carboxamido)-5,6,7,8-tetrahydronaphthalen-2-yl)azetidine-3-carboxylic acid]",200 to 2000
27,"Cc1ccc2c(N)c(C(=O)N[C@H]3COc4cc(N5CCC(O)CC5)ccc4C3)sc2n1 [Example 7-1, (R)-3-amino-N-(7-(4-hydroxypiperidin-1-yl)chroman-3-yl)-6-methylthieno[2,3-b]pyridine-2-carboxamide]",1 to 50
28,Cc1ccc2c(N)c(C(=O)N[C@H]3COc4cc(N5CCC[C@](C)(O)C5)ccc4C3)sc2n1 [Example 7-2],1 to 50
29,"Cc1ccc2c(N)c(C(=O)N[C@H]3COc4cc(N5CCC[C@@](C)(O)C5)ccc4C3)sc2n1 [Example 7-3, 3-amino-N-((R)-7-((R)-3-hydroxy-3-methylpiperidin-l-yl)chroman-3-yl)-6-methylthieno[2,3-b]pyridine-2-carboxamide]",1 to 50
30,"Cc1ccc2c(N)c(C(=O)N[C@H]3CCc4nc(N5C[C@H](N)[C@H](C(F)F)C5)ccc4C3)sc2n1 [Example 345, 3-amino-N-[(6S)-2-[(3R,4R)-3-amino-4-(difluoromethyl)pyrrolidin-1-yl]-5,6,7,8-tetrahydroquinolin-6-yl]-6-methylthieno[2,3-b]pyridine-2-carboxamide]",50 to 200
